pIC50: −log10 of the molar value.

For this experiment, the target named is D-amino-acid oxidase (Sus scrofa, UniProt P00371). The experiment is described as follows: In vitro D-Amino Acid Oxidase Assay. The note with it: pH 8.5; 22 °C. The protocol:
D-amino acid oxidase (DAAO) was assayed in a 96-well plate format. D-serine was oxidatively deaminated by porcine D-amino acid oxidase in the presence of molecular oxygen and flavin […] dinucleotide (FAD) to yield the corresponding alpha-keto acid, ammonia and hydrogen peroxide.

Sequence of D-amino-acid oxidase (P00371 whole entry): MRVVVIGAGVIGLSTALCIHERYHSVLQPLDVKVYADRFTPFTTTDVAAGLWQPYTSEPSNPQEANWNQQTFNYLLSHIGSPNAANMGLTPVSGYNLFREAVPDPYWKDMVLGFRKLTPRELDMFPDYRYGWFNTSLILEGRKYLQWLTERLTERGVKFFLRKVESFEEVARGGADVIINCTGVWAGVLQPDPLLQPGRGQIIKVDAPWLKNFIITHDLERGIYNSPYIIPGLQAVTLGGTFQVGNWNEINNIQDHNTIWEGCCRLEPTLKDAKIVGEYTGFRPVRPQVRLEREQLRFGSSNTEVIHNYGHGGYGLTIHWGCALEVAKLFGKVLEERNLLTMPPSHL

In general, pIC50 refers to the negative decadic logarithm of the IC50, by convention in mol/L. A higher pIC50 goes with a small IC50. `O=c1[nH]oc2c1CCCC2` [4,5,6,7-tetrahydrobenzo[d]isoxazol-3-ol] had a pIC50 below 4.00.
